Measurements reported in US6689814B1, “Use of dialkyldialkylammonium halide for the preparation of a virucidal medicament intended to be administered by the systemic route” (priority 1998, dated 2004).
Values joined by “and” are separate entries in the source; they are usually repeats but may differ in a detail not shown here. Equal entries are not always repeated.

Key:
[1] = tested on: Herpesvirus simplex; assay: Example 2: Herpes simplex nasal infection of mice, Bardac intraperitoneal, 6-day monitoring and lung infectious titer; format: in vivo
Description: (§1) A test similar to the one described in Example 1 was carried out using two groups of 17 mice, one Herpesvirus simplex batch having a titer of 2×10^2 PFU/ml, by inoculating a Bardac® dose of 0.018 mg by injection (that is to say a daily-dose of 0.036 mg) and following the protocol below: on day D0, Bardac® is injected and, 12 hours later, nasal instillation of the virus is carried out, followed by intraperitoneal injections of Bardac® every twelve hours. Monitoring was carried out twice per day for six days.
(§2) At the end of the monitoring period, the lungs of the animals in the two groups were collected for culturing, in order to detect the presence of the virus. Detection of the virus is carried out as follows: the lung is homogenized in a DOUNCE® mixer and then suspended in a sterile test tube and centrifuged for 10 minutes at 2000 rpm. If the sample is not analyzed immediately, it is stored at −80° C. The infectious titer of the lung is given by titrating the virions present in 0.3 ml of centrifugation supernatant and multiplying the number of PFU by ten.

[2] = mouse, according to the manufacturer (LONZA); cited from earlier work
[3] = tested on: Herpesvirus simplex; assay: Example 1: Herpes simplex nasal infection of Nude mice, Bardac intraperitoneal, 14-day monitoring; format: in vivo, nu/nu Nude mice; details: 0.025 mg i.p. twice a day
Source text: Three-week-old female nu/nu Nude mice, having an average weight of 6 to 8 g, divided into two batches of 20 animals, a control group receiving only the virus (curve -x- in FIG. 1), and one group being treated with Bardac® (curve -●- in FIG. 1).
Herpesvirus simplex batch having a titer of 10′ PFU (Plaque Forming Units)/ml.
Didecyldimethylammonium chloride (Bardac®) provided by the Swiss company Lonza and used in the form of a dilution in an isotonic saline solution.
Inoculation of the virus: 30 μl by the nasal route of pure viral suspension, which corresponds to an installation of about 10^4 PFU (viral load). The inoculation is carried out according to the protocol described by KERN et al. in Antiviral Res., 1986, 6, 189-195. One mouse died during the nasal instillation.
Bardac®: inoculation by the intraperitoneal route, twice a day of a dose of 0.025 mg of the product by injection, i.e. a daily dose of 0.050 mg. According to the manufacturer (LONZA), the LD50 by the intravenous route is about 0.20 mg/10 g of mouse.
On day D0, Bardac® is injected in the morning, and 4 hours later nasal instillation of the virus is carried out, followed 6 hours later by the second injection of Bardac®; on the following days, the injections were carried out around 9 am and 5 pm.

[4] = tested on: Herpesvirus simplex; assay: Example 3: protocol of Example 2 with two batches of 52 animals; format: in vivo, mice
Description: as §1, §2
The protocol followed is identical to that of Example 2 with two batches of 52 animals.

SMILES: CCCCCCCCCC[N+](C)(C)CCCCCCCCCC.[Cl-] [Bardac®, didecyldimethylammonium chloride]
- infectious titer in the lung, individual treated mouse ([1]; mouse alive at D6): 0 PFU (7×) and 20 PFU (2×) and 100 PFU
- infectious titer in the lung, individual treated mouse ([1]; mouse dead at D5): 0 PFU
- infectious titer in the lung, individual treated mouse ([1]; mouse dead at D6): 0 PFU (2×) and 20 PFU and 150 PFU and 50 PFU and 200 PFU
- total infectious titer in the lungs ([1]; sum over the 17 treated mice, control >3200): 560 PFU
- percentage of survivals on day D6 ([1]; treated group of 17 mice, 0.018 mg i.p. every twelve hours, control 29%): 59%
- mice alive on day D6 ([1]; treated group of 17 mice, 0.018 mg i.p. every twelve hours, control five): ten
- number of infected mice ([1]; treated group of 17 mice, control 15): 7
- percentage of mice infected ([1]; treated group of 17 mice, control 88%): 41%
- effect on mortality and infectious titer (in words) ([1]; treated group versus control group): less affected by the virus
- LD50 by the intravenous route [2]: about 0.20 mg/10 g of mouse
- percentage of survivals ([3]; treated group of 20 mice, about 10^4 PFU nasal, 14 days monitoring, control 10%): 45%
- average duration of the disease ([3]; treated group, control 8.5 days): 9.2 days
- infectious titer in the lung, individual infected treated mouse ([4]; mouse alive at D6): > 1000 PFU (2×) and 20 PFU (2×) and 120 PFU and 250 PFU and 80 PFU
- infectious titer in the lung, individual infected treated mouse ([4]; mouse dead at D3): > 1000 PFU and 50 PFU
- infectious titer in the lung, individual infected treated mouse ([4]; mouse dead at D5): 300 PFU and 160 PFU and 50 PFU and 40 PFU
- total infectious titer ([4]; sum over the 13 infected treated mice, control >11930): >4100 PFU
- factor by which the infectious titer (in PFU) is reduced ([4]; treated animals versus control group, overall): 3
- number of live mice on the sixth day ([4]; treated group of 52 mice, control 22): 39
- number of mice infected with the virus ([4]; treated group of 52 mice, control 37): 13
- percentage of survivors on the sixth day ([4]; treated group of 52 mice, control 42%): 75%
- percentage of mice infected with the virus ([4]; treated group of 52 mice, control 71%): 25%
